Test results reported in patent US8017611B2, “Pyridine and pyrazine derivatives -083” (AstraZeneca AB, priority 2007, dated 2011).
Where two headings read alike, the source gives them in different places.

Key:
[1] = target: T1, Axl expressed on NCI H1299 lung large cell carcinoma cells (Homo sapiens, UniProt P30530); test: Cellular phospho-Axl ELISA assay, Test (b); conditions: Test (b)
T1 sequence (P30530 26-894): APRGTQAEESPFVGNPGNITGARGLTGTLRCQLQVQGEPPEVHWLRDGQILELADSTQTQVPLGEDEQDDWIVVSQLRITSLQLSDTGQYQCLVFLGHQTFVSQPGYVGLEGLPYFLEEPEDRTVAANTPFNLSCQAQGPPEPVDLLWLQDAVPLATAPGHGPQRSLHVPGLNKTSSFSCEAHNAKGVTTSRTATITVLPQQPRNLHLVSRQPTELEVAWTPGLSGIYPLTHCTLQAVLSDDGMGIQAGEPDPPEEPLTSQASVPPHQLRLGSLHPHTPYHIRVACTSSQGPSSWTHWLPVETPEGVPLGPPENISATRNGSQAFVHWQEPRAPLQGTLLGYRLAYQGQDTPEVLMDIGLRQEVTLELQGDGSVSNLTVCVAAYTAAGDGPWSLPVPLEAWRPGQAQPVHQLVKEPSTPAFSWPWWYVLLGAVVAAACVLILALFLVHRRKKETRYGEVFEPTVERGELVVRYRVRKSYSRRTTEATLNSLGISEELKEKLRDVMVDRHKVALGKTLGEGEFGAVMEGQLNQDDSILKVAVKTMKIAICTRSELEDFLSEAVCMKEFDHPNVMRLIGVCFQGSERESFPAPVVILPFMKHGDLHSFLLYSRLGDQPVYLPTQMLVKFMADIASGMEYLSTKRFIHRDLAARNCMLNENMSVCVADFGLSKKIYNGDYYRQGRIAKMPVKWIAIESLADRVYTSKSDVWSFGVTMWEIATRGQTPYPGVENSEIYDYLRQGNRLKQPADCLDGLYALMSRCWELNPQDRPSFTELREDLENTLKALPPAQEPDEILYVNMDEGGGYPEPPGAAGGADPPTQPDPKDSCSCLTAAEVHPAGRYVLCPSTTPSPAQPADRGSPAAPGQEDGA
Protocol: This assay uses a conventional ELISA method to determine the ability of test compounds to inhibit phosphorylation of tyrosine residues in Axl.
100 μl Aliquots were seeded into each of the wells of a clear 96 well tissue culture plate and the plates were incubated overnight at 37° C. with 5% CO2 to allow the cells to adhere to the wells.
Aliquots of each compound concentration were added to the cells in each well using the Echo 550 (Labcyte Inc., Sunnyvale, Calif., US). Control cells received DMSO only. The cells were incubated for 2 hours at 37° C. with 5% CO2.
The resultant tissue culture plates were incubated on ice for 30 minutes to ensure full lysis.
The wells were washed 3 times with 250 μl per well of PBS containing 0.05% v/v Tween (PBS/T). The wells were treated with 3% w/v BSA in PBS at ambient temperature for 2 hours and subsequently washed 3 times with 250 μl per well of PBS/T.
50 μl Aliquots of the NCI H1299 cell lysates were added to the ELISA plates.
100 μl Aliquots of substrate solution were added to each of the wells and fluorescence was read on a Tecan Ultra plate reader (Tecan UK Ltd., Reading, Berkshire, UK).

c-Met = target: T2, c-Met (Homo sapiens, UniProt P08581); test: In vitro c-Met kinase assay (AlphaScreen), Test (c); type: biochemical; conditions: read-out: IC50 versus c-Met tyrosine kinase
T2 construct: pY^1234pY^1235c-Met(1074-1366) kinase domain
T2 sequence (P08581 1074-1366): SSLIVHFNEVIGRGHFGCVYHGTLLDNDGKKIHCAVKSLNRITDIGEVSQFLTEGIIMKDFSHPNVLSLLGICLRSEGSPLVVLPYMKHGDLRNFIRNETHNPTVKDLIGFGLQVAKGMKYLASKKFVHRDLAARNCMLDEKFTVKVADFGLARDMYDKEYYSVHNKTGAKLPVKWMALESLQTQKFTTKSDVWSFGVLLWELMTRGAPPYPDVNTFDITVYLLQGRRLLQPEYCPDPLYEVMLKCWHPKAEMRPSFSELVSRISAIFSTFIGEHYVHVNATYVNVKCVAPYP
Protocol: The assay used AlphaScreen technology (Gray et al., Analytical Biochemistry, 2003, 313: 234-245) to determine the ability of test compounds to prevent the activation of c-Met, in which wild type activated c-Met phosphorylates a mutant form of c-Met lacking catalytic activity but retaining the ability to be phosphorylated on the activating residues.
Kinase activity assays were performed in 384-well low-volume white plates (Greiner, 784075) with a total volume of 12 μL in each well. Each kinase reaction contained 40 pg (100 pM) pY^1234pY^1235c-Met(1074-1366) kinase domain, 44 ng (100 nM) cMyc-[D1204N,R1208Q]c-Met(1069-1366)-biotin, 25 mM HEPES (pH7.4), 0.1 mM sodium orthovanadate, 1 mM DTT, 0.01% (v/v) Tween-20, 10 mM magnesium chloride, 0.1% BSA, 50 μM ATP.
Various concentrations of test compounds were each added in 6% (v/v) DMSO to yield a final assay DMSO concentration of 1% (v/v). […] Plates were read using an Envision (Perkin Elmer) with excitation at 680 nm, emission […]. […]

[2] = target: T3, recombinant Axl tyrosine kinase (Homo sapiens, UniProt P30530); test: In vitro Axl kinase assay (AlphaScreen), Test (a); type: biochemical
T3 construct: encompassing amino acids 473 to 894 of Axl; GST (N); made in house; host or cells: SF126 insect cells
T3 sequence (P30530 473-894): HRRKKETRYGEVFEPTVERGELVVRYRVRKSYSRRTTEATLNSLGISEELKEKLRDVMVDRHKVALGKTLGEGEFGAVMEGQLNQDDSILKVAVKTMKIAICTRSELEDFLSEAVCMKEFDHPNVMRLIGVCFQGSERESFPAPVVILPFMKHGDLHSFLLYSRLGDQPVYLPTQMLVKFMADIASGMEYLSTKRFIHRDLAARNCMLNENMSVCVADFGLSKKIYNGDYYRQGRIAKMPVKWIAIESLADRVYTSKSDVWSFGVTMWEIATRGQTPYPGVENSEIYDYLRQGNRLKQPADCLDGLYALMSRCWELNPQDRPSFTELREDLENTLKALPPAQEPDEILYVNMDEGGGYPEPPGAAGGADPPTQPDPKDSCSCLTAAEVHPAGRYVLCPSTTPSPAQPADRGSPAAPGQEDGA

- IC50 ([1]; read-out: IC50 versus cellular phospho-Axl, mean recalculated from a larger number of replicates, later recalculated): 111 nM
- IC50 ([1]; read-out: IC50 versus cellular phospho-Axl, NCI H1299 cells stimulated with GAS6): ~39 nM
- IC50 (c-Met): ~1950 nM
- IC50 ([2]; Test (a), read-out: IC50 versus Axl tyrosine kinase): ~24 nM
- % Axl tyrosine kinase inhibition at 1 μM concentration ([2]; test compound at 1 μM, first value quoted): 96.6%
Structure (SMILES): CN1CCC(n2cc(-c3cnc(N)c(-c4nc5ccc(F)cc5o4)c3)cn2)CC1 [Example 7.2]
